The structures appear in SMILES notation. pIC50: −log10 of the molar value.

Experimental findings from US12540143B2, “Methods and compositions for targeted protein degradation” (Ranok Therapeutics (Hangzhou) Co. Ltd., priority 2019, dated 2026) are described below.

This experiment concerns MV4-11 cells. Put plainly: MV4-11 Cytotoxicity Assay. Type of experiment: cell-based, human. Particulars: Homo sapiens, MV4-11; 72 hr, CCK-8; read-out: MV4-11 cytotoxicity.
In the case of `Cc1sc2c(c1C)C(c1ccc(Cl)cc1)=N[C@@H](CC(=O)N1CCN(Cc3ccc(-n4c(O)nnc4-c4cc(C(C)C)c(O)cc4O)cc3)CC1)c1nnc(C)n1-2` [Compound 38, 2-((6S)-4-(4-chlorophenyl)-2,3,9-trimethyl-6H-thieno[3,2-f][1,2,4]triazolo[4,3-a][1,4]diazepin-6-yl)-1-(4-(4-(3-(2,4-dihydroxy-5-isopropylphenyl)-5-hydroxy-4H-1,2,4-triazol-4-yl)benzyl)piperazin-1-yl)ethanone, trifluoroacetic acid], the pIC50 was above 7.00.
As for `Cc1sc2c(c1C)C(c1ccc(Cl)cc1)=N[C@@H](CCN(C)CCOc1ccc(-n3c(O)nnc3-c3cc(C(C)C)c(O)cc3O)cc1)c1nnc(C)n1-2` [Compound 65, (S)-4-(4-(4-(2-((2-(4-(4-chlorophenyl)-2,3,9-trimethyl-6H-thieno[3,2-f][1,2,4]triazolo[4,3-a][1,4]diazepin-6-yl)ethyl)(methyl)amino)ethoxy)phenyl)-5-hydroxy-4H-1,2,4-triazol-3-yl)-6-isopropylbenzene-1,3-diol], the figure is 6.00 to 7.00; as for `Cc1sc2c(c1C)C(c1ccc(Cl)cc1)=N[C@@H](CC(=O)NCCOc1cccc(CN(C)Cc3ccc(-n4c(O)nnc4-c4cc(C(C)C)c(O)cc4O)cc3)c1)c1nnc(C)n1-2` [Compound 50, 2-((6S)-4-(4-chlorophenyl)-2,3,9-trimethyl-6H-thieno[3,2-f][1,2,4]triazolo[4,3-a][1,4]diazepin-6-yl)-N-(2-(3-(((4-(3-(2,4-dihydroxy-5-isopropylphenyl)-5-hydroxy-4H-1,2,4-triazol-4-yl)benzyl)(methyl)amino)methyl)phenoxy)ethyl)acetamide, trifluoroacetic acid, trifluoroacetic acid, trifluoroacetic acid, trifluoroacetic …], above 7.00; as for `Cc1sc2c(c1C)C(c1ccc(Cl)cc1)=N[C@@H](CC(=O)N1CCC(CN3CCN(Cc4ccc(-n5c(C(N)=O)nnc5-c5cc(C(C)C)c(O)cc5O)cc4)CC3)CC1)c1nnc(C)n1-2` [Compound 109, (S)-4-(4-((4-((1-(2-(4-(4-chlorophenyl)-2,3,9-trimethyl-6H-thieno[3,2-f][1,2,4]triazolo[4,3-a][1,4]diazepin-6-yl)acetyl)piperidin-4-yl)methyl)piperazin-1-yl)methyl)phenyl)-5-(2,4-dihydroxy-5-isopropylphenyl)-4H-1,2,4-triazole-3-carboxamide, trifluoroacetic acid], above 7.00.
In the case of `Cc1sc2c(c1C)C(c1ccc(Cl)cc1)=N[C@@H](CC(=O)NCC(=O)NCC1CN(C(=O)C3CCN(Cc4ccc(-n5c(O)nnc5-c5cc(C(C)C)c(O)cc5O)cc4)CC3)C1)c1nnc(C)n1-2` [Compound 60, 2-((6S)-4-(4-chlorophenyl)-2,3,9-trimethyl-6H-thieno[3,2-f][1,2,4]triazolo[4,3-a][1,4]diazepin-6-yl)-N-(2-(((1-(1-(4-(3-(2,4-dihydroxy-5-isopropylphenyl)-5-hydroxy-4H-1,2,4-triazol-4-yl)benzyl)piperidine-4-carbonyl)azetidin-3-yl)methyl)amino)-2-oxoethyl)acetamide, trifluoroacetic acid], the pIC50 was above 7.00.
For `Cc1sc2c(c1C)C(c1ccc(Cl)cc1)=N[C@@H](CC(=O)NCCOCCOCCOc1ccc(-n3c(S)nnc3-c3cc(C(C)C)c(O)cc3O)cc1)c1nnc(C)n1-2` [Compound 34, (S)-2-(4-(4-chlorophenyl)-2,3,9-trimethyl-6H-thieno[3,2-f][1,2,4]triazolo[4,3-a][1,4]diazepin-6-yl)-N-(2-(2-(2-(4-(3-(2,4-dihydroxy-5-isopropylphenyl)-5-mercapto-4H-1,2,4-triazol-4-yl)phenoxy)ethoxy)ethoxy)ethyl)acetamide], the pIC50 is 6.00 to 7.00.
Under `CCc1cc(-c2nnc(C(=O)NCC(F)(F)F)n2-c2ccc(CC3CCN(Cc4ccc(CNC(=O)C[C@@H]5N=C(c6ccc(Cl)cc6)c6c(sc(C)c6C)-n6c(C)nnc65)cc4)CC3)cc2)c(O)cc1O` [Compound 91, (S)-4-(4-((1-(4-((2-(4-(4-chlorophenyl)-2,3,9-trimethyl-6H-thieno[3,2-f][1,2,4]triazolo[4,3-a][1,4]diazepin-6-yl)acetamido)methyl)benzyl)piperidin-4-yl)methyl)phenyl)-5-(5-ethyl-2,4-dihydroxyphenyl)-N-(2,2,2-trifluoroethyl)-4H-1,2,4-triazole-3-carboxamide, trifluoroacetic acid] stands above 7.00; under `CCc1cc(-c2nnc(O)n2-c2ccc(CN3CCC(C(=O)N4CCC(CNC(=O)C[C@@H]5N=C(c6ccc(Cl)cc6)c6c(sc(C)c6C)-n6c(C)nnc65)C4)CC3)cc2)c(O)cc1O` (stereo partly drawn) [Compound 77, 2-((6S)-4-(4-chlorophenyl)-2,3,9-trimethyl-6H-thieno[3,2-f][1,2,4]triazolo[4,3-a][1,4]diazepin-6-yl)-N-((1-(1-(4-(3-(5-ethyl-2,4-dihydroxyphenyl)-5-hydroxy-4H-1,2,4-triazol-4-yl)benzyl)piperidine-4-carbonyl)pyrrolidin-3-yl)methyl)acetamide, trifluoroacetic acid], 6.00 to 7.00.
In the case of `Cc1sc2c(c1C)C(c1ccc(Cl)cc1)=N[C@@H](CC(=O)N[C@H](C)c1cccc(CN3CCC(Cc4ccc(-n5c(C(=O)NCC(F)(F)F)nnc5-c5cc(C(C)C)c(O)cc5O)cc4)CC3)c1)c1nnc(C)n1-2` [Compound 97, 4-(4-((1-(3-((R)-1-(2-((S)-4-(4-chlorophenyl)-2,3,9-trimethyl-6H-thieno[3,2-f][1,2,4]triazolo[4,3-a][1,4]diazepin-6-yl)acetamido)ethyl)benzyl)piperidin-4-yl)methyl)phenyl)-5-(2,4-dihydroxy-5-isopropylphenyl)-N-(2,2,2-trifluoroethyl)-4H-1,2,4-triazole-3-carboxamide, trifluoroacetic acid], the pIC50 is above 7.00.
As to `Cc1sc2c(c1C)C(c1ccc(Cl)cc1)=N[C@@H](CC(=O)N1CCN(C(=O)C3CCN(c4ccc(-n5c(O)nnc5-c5cc(C(C)C)c(O)cc5O)cc4)CC3)CC1)c1nnc(C)n1-2` [Compound 29, (S)-2-(4-(4-chlorophenyl)-2,3,9-trimethyl-6H-thieno[3,2-f][1,2,4]triazolo[4,3-a][1,4]diazepin-6-yl)-1-(4-(1-(4-(3-(2,4-dihydroxy-5-isopropylphenyl)-5-hydroxy-4H-1,2,4-triazol-4-yl)phenyl)piperidine-4-carbonyl)piperazin-1-yl)ethan-1-one], the pIC50 was 6.00 to 7.00.
On to `Cc1sc2c(c1C)C(c1ccc(Cl)cc1)=N[C@@H](CC(=O)NCCOCCOc1ccc(-n3c(S)nnc3-c3cc(C(C)C)c(O)cc3O)cc1)c1nnc(C)n1-2` [Compound 33, (S)-2-(4-(4-chlorophenyl)-2,3,9-trimethyl-6H-thieno[3,2-f][1,2,4]triazolo[4,3-a][1,4]diazepin-6-yl)-N-(2-(2-(4-(3-(2,4-dihydroxy-5-isopropylphenyl)-5-mercapto-4H-1,2,4-triazol-4-yl)phenoxy)ethoxy)ethyl)acetamide], for which the pIC50 is 6.00 to 7.00.
`Cc1sc2c(c1C)C(c1ccc(Cl)cc1)=N[C@@H](CC(=O)NCC1CCN(C(=O)C3CCN(Cc4ccc(-n5c(O)nnc5-c5cc(C(C)C)c(O)cc5O)cc4)CC3)C1)c1nnc(C)n1-2` (stereo partly drawn) [Compound 45, 2-((S)-4-(4-chlorophenyl)-2,3,9-trimethyl-6H-thieno[3,2-f][1,2,4]triazolo[4,3-a][1,4]diazepin-6-yl)-N-((1-(1-(4-(3-(2,4-dihydroxy-5-isopropylphenyl)-5-hydroxy-4H-1,2,4-triazol-4-yl)benzyl)piperidine-4-carbonyl)pyrrolidin-3-yl)methyl)acetamide, trifluoroacetic acid]: the pIC50 was above 7.00.
Under `Cc1sc2c(c1C)C(c1ccc(Cl)cc1)=N[C@@H](CC(=O)NCCOCCN1CCN(Cc3ccc(-n4c(O)nnc4-c4cc(C(C)C)c(O)cc4O)cc3)CC1)c1nnc(C)n1-2` [Compound 49, 2-((6S)-4-(4-chlorophenyl)-2,3,9-trimethyl-6H-thieno[3,2-f][1,2,4]triazolo[4,3-a][1,4]diazepin-6-yl)-N-(2-(2-(4-(4-(3-(2,4-dihydroxy-5-isopropylphenyl)-5-hydroxy-4H-1,2,4-triazol-4-yl)benzyl)piperazin-1-yl)ethoxy)ethyl)acetamide, trifluoroacetic acid, trifluoroacetic acid, trifluoroacetic acid, trifluoroacetic …] stands above 7.00; under `Cc1sc2c(c1C)C(c1ccc(Cl)cc1)=N[C@@H](CC(=O)NCC(=O)NCCOc1ccc(-n3c(S)nnc3-c3cc(C(C)C)c(O)cc3O)cc1)c1nnc(C)n1-2` [Compound 48, (S)-2-(4-(4-chlorophenyl)-2,3,9-trimethyl-6H-thieno[3,2-f][1,2,4]triazolo[4,3-a][1,4]diazepin-6-yl)-N-(2-((2-(4-(3-(2,4-dihydroxy-5-isopropylphenyl)-5-mercapto-4H-1,2,4-triazol-4-yl)phenoxy)ethyl)amino)-2-oxoethyl)acetamide], 6.00 to 7.00.
In the case of `Cc1sc2c(c1C)C(c1ccc(Cl)cc1)=N[C@@H](CC(=O)N1CCC(CN3CCN(Cc4ccc(-n5c(C(=O)NCC(F)(F)F)nnc5-c5cc(C(C)C)c(O)cc5O)cc4)CC3)CC1)c1nnc(C)n1-2` [Compound 13, 4-(4-((4-((1-(2-((6S)-4-(4-chlorophenyl)-2,3,9-trimethyl-6H-thieno[3,2-f][1,2,4]triazolo[4,3-a][1,4]diazepin-6-yl)acetyl)piperidin-4-yl)methyl)piperazin-1-yl)methyl)phenyl)-5-(2,4-dihydroxy-5-isopropylphenyl)-N-(2,2,2-trifluoroethyl)-4H-1,2,4-triazole-3-carboxamide], the pIC50 is above 7.00.
As to `Cc1sc2c(c1C)C(c1ccc(Cl)cc1)=N[C@@H](CC(=O)N1CCC(CN3CCN(Cc4ccc(-n5c(C(=O)NC(C)C)nnc5-c5ccc(O)cc5O)cc4)CC3)CC1)c1nnc(C)n1-2` [Compound 119, (S)-4-(4-((4-((1-(2-(4-(4-chlorophenyl)-2,3,9-trimethyl-6H-thieno[3,2-f][1,2,4]triazolo[4,3-a][1,4]diazepin-6-yl)acetyl)piperidin-4-yl)methyl)piperazin-1-yl)methyl)phenyl)-5-(2,4-dihydroxyphenyl)-N-isopropyl-4H-1,2,4-triazole-3-carboxamide, trifluoroacetic acid], the pIC50 was above 7.00.
